Source: patent publication US5866548A, “Caged membrane-permeant inositol phosphates” (priority 1996, dated 1999)
Entries after “also recorded” stand apart in the source; their conditions may differ.

Key:
[1] = test system: cAMP-dependent protein kinase (PKA); assay type: cell-based
[2] = molecular target: cAMP-dependent kinase type I (FICRhR) (Bos taurus, UniProt P00514); assay type: biochemical
Text: When PKA is doubly labeled with fluorescein on its catalytic subunits and rhodamine on its regulatory subunits to produce FICRhR, fluorescence energy transfer from the fluorescein to rhodamine occurs in the holoenzyme complex but is disrupted upon activation and dissociation of the subunits. The change in the ratio of fluorescein to rhodamine emissions parallels the increase in kinase activity and can be nondestructively imaged in single cells. REF-52 fibroblasts were microinjected with FICRhR and emission ratio images recorded at room temperature as previously described (27).

intestinal cell line T84 = test: cells; assay type: cell-based; conditions: for EC50: 0.2 h, T84, ISC 12 min after addition, read-out: EC50 (chloride secretion)
Text: A convenient test system is the intestinal cell line T84, in which chloride secretion can be continuously monitored by mounting confluent monolayers of cells in Ussing chambers (42).

angelfish melanophores = test: Pigment dispersion in fish dermal melanophores; assay type: cell-based, angelfish (Pterophyllum scalare); conditions: for reversibility of dispersion: removal of compound and epinephrine
Protocol: Melanophores permit a visual single-cell assay for the ability of cAMP analogs to enter cells and mimic cAMP actions. The melanophores were isolated on angelfish scales and the epidermis was stripped off. […] Dispersion was just detectable at 1 μM and half-maximal near 10 μM (FIG. 3A). […] The preceding examples are summarized in (64).

Membrane permeability = assay type: in vitro ADME
1321N1 astrocytoma cells [3] = test: [Ca2+]i response before and after UV uncaging, fluo-3; assay type: cell-based
Protocol: (b) Same experiment as (a) except done in Ca^2+ free medium (DPBS, O Ca^2+, 0.5 mM EGTA). UV exposure of the cells treated with IP3 -CPM still gave the same response, showing that the [Ca^2+ ]i increase resulted from the release of Ca^2+ from internal stores. […] The cells were loaded with fluo-3/AM. During the experiment the cells were bathed in HBS buffered with 20 mM Hepes at pH 7.4 and supplemented with 2 g/L glucose.
The [Ca^2+ ]i was monitored using the calcium indicator fluo-3 rather than fura-2 to keep the excitation wavelength of the indicator (490 nm) far from the uncaging wavelength (360 nm) of DMNB group. […] Compared to the photolyzing set-up (direct illumination by a hand mercury lamp) used for the IP3 -binding assay, the optical throughput from the source lamp to the specimen is much higher in a microscope, so 10 seconds (as opposed to 2 hours in IP3 binding assay) of photolysis was sufficient to produce enough IP3 to elicit [Ca^2+ ]i increase. The same amount of UV alone had no effect at all on [Ca^2+ ]i in cells not treated with IP3 -CPM. After recovering from uncaging of IP3 -CPM, the cells responded to subsequent carbachol and thapsigargin stimulation normally.
This confirmed that the [Ca^2+ ]i increase due to uncaging of IP3 -CPM resulted from internal Ca^2+ release, which was consistent with the normal mechanism of IP3 action.

[4] = test system: P388D1 macrophage-like cells; test: as above; assay type: cell-based; conditions: for [Ca2+]i after UV (360 nm, 10 s): 20 μM
Protocol: The cells were loaded with fluo-3/AM. During the experiment the cells were bathed in HBS buffered with 20 mM Hepes at pH 7.4 and supplemented with 2 g/L glucose.
Another example was carried out in P388D1 macrophage-like cells.
Studies by Asmis et al. (92) have shown that, in P388D1 macrophage-like cells, PAF stimulated PGE2 production is mediated through two separate signals: IP3 induced [Ca^2+ ]i increase and another unidentified signal. IP3 -CPM might serve as a new tool for detailed study of PGE2 formation and AA release in relation to IP3 and [Ca^2+ ]i in these cells. One of the major advantages of using permeant IP3 derivatives is that experiments can be easily carried out in a population of cells, which is required for the measurement of AA release and PGE2 formation.

[5] = test system: human embryonic kidney cells (HEK cells); test: [Ca2+]i response on flash photolysis of loaded cells; assay type: cell-based
Protocol: In human embryonic kidney cells (HEK cells), the extracellular IP3 -CPM was washed away after the cells had been loaded with 50 μM of IP3 -CPM for 20 minutes. […] Cells in the same dish which had not been exposed to UV light were kept in the dark for over 6 hours. […] However, pretreatment of IP3 -CPM with acetic acid will unmask the 3-hydroxyl and enable the intracellular phosphorylation of delivered IP3.

Chemical stability = assay type: physicochemical
1321N1 astrocytoma cells [6] = test: [Ca2+]i response before and after UV uncaging, fluo-3; assay type: cell-based; conditions: with extracellular Ca2+
[7] = 20 μM extracellular, about/over 5 min

cAMP-dependent kinase type I (FICRhR), sequence (P00514 whole entry): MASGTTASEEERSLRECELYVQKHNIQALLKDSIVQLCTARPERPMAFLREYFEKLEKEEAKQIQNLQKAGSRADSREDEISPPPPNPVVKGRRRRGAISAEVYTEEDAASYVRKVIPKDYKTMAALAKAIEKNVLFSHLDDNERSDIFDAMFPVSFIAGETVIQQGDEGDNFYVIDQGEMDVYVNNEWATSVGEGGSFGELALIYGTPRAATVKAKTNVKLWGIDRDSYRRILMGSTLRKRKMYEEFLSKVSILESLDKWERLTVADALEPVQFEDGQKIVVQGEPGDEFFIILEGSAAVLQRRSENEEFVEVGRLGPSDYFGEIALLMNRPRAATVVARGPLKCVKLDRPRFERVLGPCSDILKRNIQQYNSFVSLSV

For `CCCC(=O)Nc1ncnc2c1ncn2[C@@H]1O[C@@H]2COP(=O)(O)O[C@H]2[C@H]1OC(=O)CCC` [Bt2 cAMP, N^6,O^2' -dibutyryl cAMP, reference compound], the “delay and overall time course of PKA activation (in words)” value ([1]; REF-52, extracellular) was “Much the same delay and overall time course”, the “potency relative to cAMP” value ([2]; in vitro binding to FICRhR) was “roughly 1/100” and the EC50 (intestinal cell line T84) was 400 µM. The pigment dispersion (angelfish melanophores; 1 mM) was “unable to cause any detectable dispersion” and the “membrane permeability (in words)” value (Membrane permeability) was “poor permeability”.
In the case of `CCCC(=O)Nc1ncnc2c1ncn2[C@@H]1O[C@@H]2COP(=O)(OCOC(C)=O)O[C@H]2[C@H]1OC(=O)CCC` (some centres unmarked) [Bt2 cAMP/AM, N^6,O^2' -Dibutyryl Adenosine 3',5'-cyclic Monophosphate Acetoxymethyl Ester], the “onset of separation of regulatory and catalytic subunit of FICRhR after addition” value ([1]; REF-52, extracellular) is reported as “roughly 2 min”, the “plateau, % of the maximal change in fluorescence ratio” value ([1]; REF-52, extracellular 1 μM) is reported as “over 50%” and the “change in fluorescence ratio (PKA activation)” value ([1]; REF-52, extracellular 10 μM, within 15 min) is reported as “maximal change in fluorescence ratio within 15 min”. The “separation of the subunits of FICRhR (in words)” value ([2]; in vitro, 10 μM) was “no separation of the subunits”, the EC50 (intestinal cell line T84) was 2 µM and the “increase in potency by acetoxymethyl group vs Bt2 cAMP” value (intestinal cell line T84; T84) was 200 fold. The “kinetics of activation of chloride secretion (in words)” value (intestinal cell line T84; T84, Bt2 cAMP/AM vs Bt2 cAMP) was “essentially indistinguishable kinetics of activation”, the “increase in potency by AM ester group vs Bt2 cAMP” value (angelfish melanophores) was “more than 1000” and the pigment dispersion (angelfish melanophores; 100 μM) was “essentially complete dispersal”. The reversibility of dispersion (angelfish melanophores; 100 μM) was “easily reversed”, the reversibility of dispersion (angelfish melanophores; 1 mM) was “could not be readily reversed” and the onset of dispersion (angelfish melanophores; 1 mM, vs 100 μM) was “slightly faster onset of action”.
With `CCC(=O)OCOP(=O)(OCOC(=O)CC)O[C@@H]1[C@@H](OCc2cc(OC)c(OC)cc2[N+](=O)[O-])[C@H](OP(=O)(OCOC(=O)CC)OCOC(=O)CC)[C@@H]2OC(OC)O[C@@H]2[C@H]1OP(=O)(OCOC(=O)CC)OCOC(=O)CC` (stereo partly drawn) [IP3 -CPM, D-2,3-O-methoxymethylene-6-O-(4,5-dimethoxy-2-nitrobenzyl)-myo-Inositol 1,4,5-trisphosphate hexakis(propionyloxymethyl)ester] the “[Ca2+]i before UV” value (1321N1 astrocytoma cells [3]; [7]) was “no effect on [Ca^2+ ]i”, the “[Ca2+]i after UV (360 nm, 10 s)” value (1321N1 astrocytoma cells [3]; 20 μM, Ca2+ free medium (0.5 mM EGTA), listed as IP3 -CPM (V-1)) was “same response” and the “extracellular concentration eliciting maximal Ca2+ release upon uncaging” value (1321N1 astrocytoma cells [3]; 1321N1 astrocytoma cells) was 10^-6 to 10^-5 M. For the same molecule, the “[Ca2+]i time course after uncaging” value (1321N1 astrocytoma cells [3]; Ca2+ free medium) was “soon went back to the resting level”, the “[Ca2+]i time course after uncaging” value [4] was “went back to the basal level in a short time” and the “[Ca2+]i after UV (360 nm, 10 s)” value [4] was “released a fair amount of Ca^2+ from internal stores”. The “[Ca2+]i before UV” value [4, 7] was “no effect on [Ca^2+ ]i”, the “[Ca2+]i after UV (360 nm, 10 s)” value ([4]; listed as IP3 -CPM (V-1)) was “big [Ca^2+ ]i increase” and the “[Ca2+]i on photolysis (1 ms flash)” value ([5]; loaded 50 μM, 20 min, washed) was “transient increase in [Ca^2+ ]i”. For the same molecule, the “persistence of [Ca2+]i response to repeated flashes” value ([5]; loaded 50 μM, 20 min, washed) was “persisted for up to a dozen repetitions”, the “[Ca2+]i on photolysis after dark storage” value ([5]; over 6 hours in the dark after loading) was “[Ca^2+ ]i increases similar to those obtained immediately after being loaded; also recorded: full-scale [Ca^2+ ]i increases” and the “chemical stability vs commercially available caged IP3” value (Chemical stability) was “chemically more stable”. The “membrane permeability (in words)” value (Membrane permeability) was “crossed the cell membrane”, the “[Ca2+]i after UV (360 nm, 10 s)” value (1321N1 astrocytoma cells [6]; 20 μM) was “almost saturating [Ca^2+ ]i increase” and the “[Ca2+]i time course after uncaging” value (1321N1 astrocytoma cells [6]) was “remained elevated above the resting level”.
